According to patent US12304916B2, “Thienopyridinyl and thiazolopyridinyl compounds useful as IRAK4 inhibitors” (BRISTOL-MYERS SQUIBB COMPANY, priority 2019, dated 2025):

Columns and labels:
[1] = system: IL-6 levels in human whole blood stimulated with a TLR2 agonist (lipoteichoic acid); assay: IRAK4 Whole Blood Assay; type: cell-based; conditions: 10 μg/mL lipoteichoic acid for 5 hours, IL-6 readout
Description: Human whole blood containing the anti-coagulant ACD-A was plated in 384-well plate (25 μL/well) and incubated with compounds for 60 minutes at 37° C. in a 5% CO2 incubator. The blood was stimulated with a TLR2 agonist, 10 μg/mL final concentration of lipoteichoic acid (Invivogen, San Diego, CA) in 25 μL RPMI (Gibco) for 5 hours in a 5% CO2 incubator. At the end of the incubation, plates were centrifuged at 2300 rpm for 5 minutes. Supernatants were harvested and analyzed for IL-6 levels by Flow Cytometry beads assay (BD Biosciences, San Jose, CA).

IRAK4 = IRAK4 (Homo sapiens (Human), UniProt Q9NWZ3); assay: IRAK4 Inhibition Assay; type: biochemical; conditions: ATP 500 μM; IRAK4 0.6 nM; 60 min at room temperature
Chain of IRAK4 (Q9NWZ3 whole entry, species assumed): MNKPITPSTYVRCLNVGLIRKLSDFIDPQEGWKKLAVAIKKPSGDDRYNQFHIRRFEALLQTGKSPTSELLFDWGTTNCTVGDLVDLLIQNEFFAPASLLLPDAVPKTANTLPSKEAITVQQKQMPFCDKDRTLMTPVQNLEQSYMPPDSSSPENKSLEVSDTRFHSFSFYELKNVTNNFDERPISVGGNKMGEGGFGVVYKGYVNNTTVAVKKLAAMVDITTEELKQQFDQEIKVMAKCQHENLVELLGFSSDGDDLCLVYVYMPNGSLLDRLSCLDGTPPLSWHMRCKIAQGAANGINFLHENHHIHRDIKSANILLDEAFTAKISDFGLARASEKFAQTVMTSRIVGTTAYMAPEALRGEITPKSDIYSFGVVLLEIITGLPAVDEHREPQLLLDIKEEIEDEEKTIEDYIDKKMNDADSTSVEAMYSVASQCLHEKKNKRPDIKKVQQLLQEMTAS
Description: The assays were performed in U-bottom 384-well plates. The final assay volume was 30 μL prepared from 15 μL additions of enzyme and substrates (fluoresceinated peptide and ATP) and test compounds in assay buffer (20 mM HEPES pH 7.2, 10 mM MgCl2, 0.015% Brij 35 and 4 mM DTT). The reaction was initiated by the combination of IRAK4 with substrates and test compounds. The reaction mixture was incubated at room temperature for 60 min. and terminated by adding 45 μL of 35 mM EDTA to each sample. The reaction mixture was analyzed on the Caliper LABCHIP® 3000 (Caliper, Hopkinton, MA) by electrophoretic separation of the fluorescent substrate and phosphorylated product. Inhibition data were calculated by comparison to no enzyme control reactions for 100% inhibition and vehicle-only reactions for 0% inhibition. The final concentrations of reagents in the assays are ATP, 500 μM; FL-IPTSPITTTYFFFKKK peptide 1.5 μM; IRAK4, 0.6 nM; and DMSO, 1.6%.

SMILES	EC50 [1]	IC50 (IRAK4)
CC(C)Nc1c(C(=O)NC[C@@H](F)C(C)(C)O)cnc2sc(-c3cn[nH]c3)cc12 [Example 21, (R)-N-(2-fluoro-3-hydroxy-3-methylbutyl)-4-(isopropylamino)-2-(1H-pyrazol-4-yl)thieno[2,3-b]pyridine-5-carboxamide]	> 20 µM	0.0024 µM
CC(C)Nc1c(C(=O)NC[C@@H](F)C(C)(C)O)cnc2sc(-c3cccnc3)cc12 [Example 22, (R)-N-(2-fluoro-3-hydroxy-3-methylbutyl)-4-(isopropylamino)-2-(pyridin-3-yl)thieno[2,3-b]pyridine-5-carboxamide]	3.42 µM	0.0053 µM
CC(C)Nc1c(C(=O)NC[C@@H](F)C(C)(C)O)cnc2sc(-c3ccncc3)cc12 [Example 23, (R)-N-(2-fluoro-3-hydroxy-3-methylbutyl)-4-(isopropylamino)-2-(pyridin-4-yl) thieno[2,3-b]pyridine-5-carboxamide]	4.25 µM	0.0048 µM
CC(C)Nc1c(C(=O)NC[C@@H](F)C(C)(C)O)cnc2sc(-c3cccc(C#N)c3)cc12 [Example 24, (R)-2-(3-cyanophenyl)-N-(2-fluoro-3-hydroxy-3-methylbutyl)-4-(isopropylamino)thieno[2,3-b]pyridine-5-carboxamide]	> 20 µM	0.0168 µM
CC(C)Nc1c(C(=O)NC[C@@H](F)C(C)(C)O)cnc2sc(-c3ccc(C#N)nc3)cc12 [Example 25, (R)-2-(6-cyanopyridin-3-yl)-N-(2-fluoro-3-hydroxy-3-methylbutyl)-4-(isopropylamino) thieno[2,3-b]pyridine-5-carboxamide]	> 20 µM	0.0189 µM
CC(C)Nc1c(C(=O)NC[C@@H](F)C(C)(C)O)cnc2sc(-c3cncs3)cc12 [Example 27, (R)-N-(2-fluoro-3-hydroxy-3-methylbutyl)-4-(isopropylamino)-2-(thiazol-5-yl) thieno[2,3-b]pyridine-5-carboxamide]	0.58 µM	0.002 µM
CC(C)CCNC(=O)c1cnc2sc(-c3ccncc3)cc2c1NC(C)C [Example 29, N-isopentyl-4-(isopropylamino)-2-(pyridin-4-yl)thieno[2,3-b]pyridine-5-carboxamide]	2.4 µM	0.0129 µM
CC(C)CCNC(=O)c1cnc2sc(-c3cncs3)cc2c1NC(C)C [Example 30, N-isopentyl-4-(isopropylamino)-2-(thiazol-5-yl)thieno[2,3-b]pyridine-5-carboxamide]	> 20 µM	0.0075 µM
CC(C)Nc1c(C(=O)NCC2(CO)COC2)cnc2sc(-c3cncs3)cc12 [Example 47, N-((3-(hydroxymethyl)oxetan-3-yl)methyl)-4-(isopropylamino)-2-(thiazol-5-yl)thieno[2,3-b]pyridine-5-carboxamide]		0.215 µM
C[C@H](CCO)NC(=O)c1cnc2sc(-c3cncs3)cc2c1Nc1cnn(CC(F)F)c1 [Example 48, (R)-4-((1-(2,2-difluoroethyl)-1H-pyrazol-4-yl)amino)-N-(4-hydroxybutan-2-yl)-2-(thiazol-5-yl)thieno[2,3-b]pyridine-5-carboxamide]		1.88 µM
O=C(N[C@H]1CC[C@H](O)CC1)c1cnc2sc(-c3cncs3)cc2c1Nc1cnn(CC(F)F)c1 [Example 49, 4-((1-(2,2-difluoroethyl)-1H-pyrazol-4-yl)amino)-N-((1s,4s)-4-hydroxycyclohexyl)-2-(thiazol-5-yl)thieno[2,3-b]pyridine-5-carboxamide]		0.408 µM
COCCNC(=O)c1cnc2sc(-c3cncs3)cc2c1Nc1cnn(CC(F)F)c1 [Example 51, 4-((1-(2,2-difluoroethyl)-1H-pyrazol-4-yl)amino)-N-(2-methoxyethyl)-2-(thiazol-5-yl)thieno[2,3-b]pyridine-5-carboxamide]		1.23 µM
CC(C)(O)[C@H](F)CNC(=O)c1cnc2sc(-c3cncs3)cc2c1Nc1cnn(CC(F)F)c1 [Example 52, (R)-4-((1-(2,2-difluoroethyl)-1H-pyrazol-4-yl)amino)-N-(2-fluoro-3-hydroxy-3-methylbutyl)-2-(thiazol-5-yl)thieno[2,3-b]pyridine-5-carboxamide]		0.0728 µM
O=C(N[C@H]1CC[C@H](O)CC1)c1cnc2sc(-c3cncs3)cc2c1NC1COC1 [Example 54, N-((1s,4s)-4-hydroxycyclohexyl)-4-(oxetan-3-ylamino)-2-(thiazol-5-yl)thieno[2,3-b]pyridine-5-carboxamide]		0.193 µM
O=C(NCc1ncn[nH]1)c1cnc2sc(-c3cncs3)cc2c1NC1COC1 [Example 55, N-((1H-1,2,4-triazol-5-yl)methyl)-4-(oxetan-3-ylamino)-2-(thiazol-5-yl)thieno[2,3-b]pyridine-5-carboxamide]		0.2 µM
COc1ncc(-c2cc3c(NC(C)C)c(C(=O)NC[C@@H](F)C(C)(C)O)cnc3s2)s1 [Example 58, (R)-N-(2-fluoro-3-hydroxy-3-methylbutyl)-4-(isopropylamino)-2-(2-methoxythiazol-5-yl)thieno[2,3-b]pyridine-5-carboxamide]		0.0535 µM
CC(C)Nc1c(C(=O)NC2CC(O)C2)cnc2sc(-c3cncs3)cc12 (stereo not shown) [Example 61, N-(3-hydroxycyclobutyl)-4-(isopropylamino)-2-(thiazol-5-yl) thieno[2,3-b]pyridine-5-carboxamide]		0.0975 µM
CC(C)Nc1c(C(=O)NC[C@@H](F)C(C)(C)O)cnc2sc(-c3cscn3)cc12 [Example 62, (R)-N-(2-fluoro-3-hydroxy-3-methylbutyl)-4-(isopropylamino)-2-(thiazol-4-yl)thieno[2,3-b]pyridine-5-carboxamide]		0.0351 µM
CC(C)Nc1c(C(=O)NC[C@@H](F)C(C)(C)O)cnc2sc(-c3ccc(C#N)nc3)cc12 [Example 64, (R)-2-(6-cyanopyridin-3-yl)-N-(2-fluoro-3-hydroxy-3-methylbutyl)-4-(isopropylamino)thieno[2,3-b]pyridine-5-carboxamide]		0.0085 µM
CC(C)Nc1c(C(=O)NC[C@@H](F)C(C)(C)O)cnc2sc(-c3cncc(C#N)c3)cc12 [Example 65, (R)-2-(5-cyanopyridin-3-yl)-N-(2-fluoro-3-hydroxy-3-methylbutyl)-4-(isopropylamino)thieno[2,3-b]pyridine-5-carboxamide]		0.0186 µM
CC(=O)N1CCC(NC(=O)c2cnc3sc(-c4ccc(=O)[nH]c4)cc3c2NC(C)C)CC1 [Example 66, N-(1-acetylpiperidin-4-yl)-4-(isopropylamino)-2-(6-oxo-1,6-dihydropyridin-3-yl)thieno[2,3-b]pyridine-5-carboxamide]		0.0371 µM
CC(C)Nc1c(C(=O)NCCCNS(C)(=O)=O)cnc2sc(-c3ccc(=O)[nH]c3)cc12 [Example 67, 4-(isopropylamino)-N-(3-(methylsulfonamido)propyl)-2-(6-oxo-1,6-dihydropyridin-3-yl)thieno[2,3-b]pyridine-5-carboxamide]		0.0428 µM
CC(C)Nc1c(C(=O)NCC2CCS(=O)(=O)C2)cnc2sc(-c3cncs3)cc12 (stereo not shown) [Example 69, N-((1,1-dioxidotetrahydrothiophen-3-yl)methyl)-4-(isopropylamino)-2-(thiazol-5-yl)thieno[2,3-b]pyridine-5-carboxamide]		0.0722 µM
CC(C)Nc1c(C(=O)NCCC2CCNC2)cnc2sc(-c3ccc(=O)[nH]c3)cc12 (stereo not shown) [Example 70, 4-(isopropylamino)-2-(6-oxo-1,6-dihydropyridin-3-yl)-N-(2-(pyrrolidin-3-yl)ethyl)thieno[2,3-b]pyridine-5-carboxamide]		0.0226 µM
CC(C)Nc1c(C(=O)NCCN2CCS(=O)(=O)CC2)cnc2sc(-c3ccc(=O)[nH]c3)cc12 [Example 73, N-(2-(1,1-dioxidothiomorpholino)ethyl)-4-(isopropylamino)-2-(6-oxo-1,6-dihydropyridin-3-yl)thieno[2,3-b]pyridine-5-carboxamide]		0.0242 µM
CC(C)Nc1c(-n2cc(CCC(C)(C)O)nn2)cnc2sc(-c3cccnc3)cc12 [Example 74, 4-(1-(4-(isopropylamino)-2-(pyridin-3-yl)thieno[2,3-b]pyridin-5-yl)-1H-1,2,3-triazol-4-yl)-2-methylbutan-2-ol]		0.171 µM
CC(C)Nc1c(-n2cc(CCC(C)(C)O)nn2)cnc2sc(-c3ccncc3)cc12 [Example 75, 4-(1-(4-(isopropylamino)-2-(pyridin-4-yl)thieno[2,3-b]pyridin-5-yl)-1H-1,2,3-triazol-4-yl)-2-methylbutan-2-ol]		0.0448 µM
CC(C)CCc1cn(-c2cnc3sc(-c4ccncc4)cc3c2NC(C)C)nn1 [Example 76, 5-(4-isopentyl-1H-1,2,3-triazol-1-yl)-N-isopropyl-2-(pyridin-4-yl)thieno[2,3-b]pyridin-4-amine]		0.0441 µM
CC(C)CCc1nc(-c2cnc3sc(-c4cncs4)cc3c2NC(C)C)n[nH]1 [Example 77, 5-(5-isopentyl-1H-1,2,4-triazol-3-yl)-N-isopropyl-2-(thiazol-5-yl)thieno[2,3-b]pyridin-4-amine]		0.289 µM
